{"source": "ChEMBL document CHEMBL1201862", "about": "“PubChem BioAssay data set” (2004)", "experiment_in_all_cases": "inhibition of tumour cell growth, NCI panel, 48 h", "key": {"786-0": {"test_system": "786-0"}, "A498": {"test_system": "A498"}, "A549": {"test_system": "A549"}, "ACHN": {"test_system": "ACHN"}, "BT-549": {"test_system": "BT-549"}, "CAKI-1": {"test_system": "CAKI-1"}, "CCRF-CEM": {"test_system": "CCRF-CEM"}, "COLO 205": {"test_system": "COLO 205"}, "DU-145": {"test_system": "DU-145"}, "EKVX": {"test_system": "EKVX"}, "HCT-116": {"test_system": "HCT-116"}, "HCT-15": {"test_system": "HCT-15"}, "HL-60": {"test_system": "HL-60"}, "HOP-62": {"test_system": "HOP-62"}, "HOP-92": {"test_system": "HOP-92"}, "HT-29": {"test_system": "HT-29"}, "Hs-578T": {"test_system": "Hs-578T"}, "IGROV-1": {"test_system": "IGROV-1"}, "K562": {"test_system": "K562"}, "KM12": {"test_system": "KM12"}, "LOX IMVI": {"test_system": "LOX IMVI"}, "M14": {"test_system": "M14"}, "MCF7": {"test_system": "MCF7"}, "MDA-MB-231": {"test_system": "MDA-MB-231"}, "MDA-MB-435": {"test_system": "MDA-MB-435"}, "MDA-N": {"test_system": "MDA-N"}, "MOLT-4": {"test_system": "MOLT-4"}, "Malme-3M": {"test_system": "Malme-3M"}, "NCI-H226": {"test_system": "NCI-H226"}, "NCI-H23": {"test_system": "NCI-H23"}, "NCI-H460": {"test_system": "NCI-H460"}, "NCI/ADR-RES": {"test_system": "NCI/ADR-RES"}, "OVCAR-3": {"test_system": "OVCAR-3"}, "OVCAR-4": {"test_system": "OVCAR-4"}, "OVCAR-5": {"test_system": "OVCAR-5"}, "OVCAR-8": {"test_system": "OVCAR-8"}, "PC-3": {"test_system": "PC-3"}, "RPMI-8226": {"test_system": "RPMI-8226"}, "RXF 393": {"test_system": "RXF 393"}, "SF-268": {"test_system": "SF-268"}, "SF-295": {"test_system": "SF-295"}, "SF-539": {"test_system": "SF-539"}, "SK-MEL-28": {"test_system": "SK-MEL-28"}, "SK-MEL-2": {"test_system": "SK-MEL-2"}, "SK-MEL-5": {"test_system": "SK-MEL-5"}, "SK-OV-3": {"test_system": "SK-OV-3"}, "SN12C": {"test_system": "SN12C"}, "SNB-19": {"test_system": "SNB-19"}, "SNB-75": {"test_system": "SNB-75"}, "SW-620": {"test_system": "SW-620"}, "T47D": {"test_system": "T47D"}, "TK-10": {"test_system": "TK-10"}, "U-251": {"test_system": "U-251"}, "UACC-257": {"test_system": "UACC-257"}, "UACC-62": {"test_system": "UACC-62"}, "UO-31": {"test_system": "UO-31"}}, "note": "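96-well plates; 48 h exposure; 5 concentrations. Endpoints by linear interpolation between flanking doses. Not reached: highest tested concentration assigned. The concentration for 50% growth inhibition is given as GI50.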 Activity calls are given as the source filed them. Cut-off read from the data, not from the text of the source: active = GI50 up to about 1.1 µM and inactive = higher.", "data": [{"smiles": "CC(=O)/C=C1\\Nc2sc(C)c(C)c2C(=O)S1", "values": [{"measurement": "GI50", "setting": "786-0", "result": "62.8 µM (inactive)"}, {"measurement": "GI50", "setting": "A498", "result": "> 100 µM (inactive)"}, {"measurement": "GI50", "setting": "A549", "result": "> 100 µM (inactive)"}, {"measurement": "GI50", "setting": "ACHN", "result": "74.8 µM (inactive)"}, {"measurement": "GI50", "setting": "BT-549", "result": "53 µM (inactive)"}, {"measurement": "GI50", "setting": "CAKI-1", "result": "65.3 µM (inactive)"}, {"measurement": "GI50", "setting": "CCRF-CEM", "result": "21.7 µM (inactive)"}, {"measurement": "GI50", "setting": "COLO 205", "result": "> 100 µM (inactive)"}, {"measurement": "GI50", "setting": "DU-145", "result": "69.7 µM (inactive)"}, {"measurement": "GI50", "setting": "EKVX", "result": "24.9 µM (inactive)"}, {"measurement": "GI50", "setting": "HCT-116", "result": "31.6 µM (inactive)"}, {"measurement": "GI50", "setting": "HCT-15", "result": 28.9, "unit": "µM"}, {"measurement": "GI50", "setting": "HL-60", "result": "32.1 µM (inactive)"}, {"measurement": "GI50", "setting": "HOP-62", "result": "89.7 µM (inactive)"}, {"measurement": "GI50", "setting": "HOP-92", "result": "> 100 µM (inactive)"}, {"measurement": "GI50", "setting": "HT-29", "result": "34.1 µM (inactive)"}, {"measurement": "GI50", "setting": "Hs-578T", "result": "20.5 µM (inactive)"}, {"measurement": "GI50", "setting": "IGROV-1", "result": "29.6 µM (inactive)"}, {"measurement": "GI50", "setting": "K562", "result": "60.4 µM (inactive)"}, {"measurement": "GI50", "setting": "KM12", "result": "29.2 µM (inactive)"}, {"measurement": "GI50", "setting": "LOX IMVI", "result": "44.6 µM (inactive)"}, {"measurement": "GI50", "setting": "M14", "result": "97.7 µM (inactive)"}, {"measurement": "GI50", "setting": "MCF7", "result": "29.6 µM (inactive)"}, {"measurement": "GI50", "setting": "MDA-MB-231", "result": "88.3 µM (inactive)"}, {"measurement": "GI50", "setting": "MDA-MB-435", "result": "47.3 µM (inactive)"}, {"measurement": "GI50", "setting": "MDA-N", "result": "88.3 µM (inactive)"}, {"measurement": "GI50", "setting": "MOLT-4", "result": "10 µM (inactive)"}, {"measurement": "GI50", "setting": "Malme-3M", "result": "30.6 µM (inactive)"}, {"measurement": "GI50", "setting": "NCI-H226", "result": "29.2 µM (inactive)"}, {"measurement": "GI50", "setting": "NCI-H23", "result": "35.5 µM (inactive)"}, {"measurement": "GI50", "setting": "NCI-H460", "result": "10 µM (inactive)"}, {"measurement": "GI50", "setting": "NCI/ADR-RES", "result": "37.1 µM (inactive)"}, {"measurement": "GI50", "setting": "OVCAR-3", "result": "44.1 µM (inactive)"}, {"measurement": "GI50", "setting": "OVCAR-4", "result": "42.2 µM (inactive)"}, {"measurement": "GI50", "setting": "OVCAR-5", "result": "> 100 µM (inactive)"}, {"measurement": "GI50", "setting": "OVCAR-8", "result": "35.6 µM (inactive)"}, {"measurement": "GI50", "setting": "PC-3", "result": "25.4 µM (inactive)"}, {"measurement": "GI50", "setting": "RPMI-8226", "result": "38.6 µM (inactive)"}, {"measurement": "GI50", "setting": "RXF 393", "result": "> 100 µM (inactive)"}, {"measurement": "GI50", "setting": "SF-268", "result": "28.8 µM (inactive)"}, {"measurement": "GI50", "setting": "SF-295", "result": "48 µM (inactive)"}, {"measurement": "GI50", "setting": "SF-539", "result": "24.5 µM (inactive)"}, {"measurement": "GI50", "setting": "SK-MEL-28", "result": "> 100 µM (inactive)"}, {"measurement": "GI50", "setting": "SK-MEL-2", "result": "24.2 µM (inactive)"}, {"measurement": "GI50", "setting": "SK-MEL-5", "result": "41 µM (inactive)"}, {"measurement": "GI50", "setting": "SK-OV-3", "result": "> 100 µM (inactive)"}, {"measurement": "GI50", "setting": "SN12C", "result": "84.3 µM (inactive)"}, {"measurement": "GI50", "setting": "SNB-19", "result": "> 100 µM (inactive)"}, {"measurement": "GI50", "setting": "SNB-75", "result": "24 µM (inactive)"}, {"measurement": "GI50", "setting": "SW-620", "result": "63.5 µM (inactive)"}, {"measurement": "GI50", "setting": "T47D", "result": "47.2 µM (inactive)"}, {"measurement": "GI50", "setting": "TK-10", "result": "80.4 µM (inactive)"}, {"measurement": "GI50", "setting": "U-251", "result": "50.2 µM (inactive)"}, {"measurement": "GI50", "setting": "UACC-257", "result": "70 µM (inactive)"}, {"measurement": "GI50", "setting": "UACC-62", "result": "65.8 µM (inactive)"}, {"measurement": "GI50", "setting": "UO-31", "result": "54 µM (inactive)"}]}]}
